Source: PMC12974487, “Inhibition of FicD-mediated AMPylation and deAMPylation by isoprenoid diphosphates” (Proceedings of the National Academy of Sciences of the …, 2026)
“Also recorded” adds a separate entry of the source.

Assays:
Assay type in all cases: biochemical
FicD^WT [1] = target: T1, FicD^WT (Homo sapiens, UniProt Q9BVA6); assay: In vitro AMPylation of Δ26hBiP^T229A by FicD^WT (Western blot); conditions: for inhibition of AMPylation of Δ26hBiP^T229A by FicD^WT: 100 μM metabolite, 500 μM ATP, 5 mM MgCl2; for concentration at which inhibition of AMPylation started: dose-response Western blot, FicD^WT
T1 construct: soluble ER luminal domain (residues 105 to 458) of wild-type human FicD; 6xHis-Sumo (N, cleaved yes); made in house; host or cells: Rosetta(DE3) E. coli
T1 sequence (Q9BVA6 105-458): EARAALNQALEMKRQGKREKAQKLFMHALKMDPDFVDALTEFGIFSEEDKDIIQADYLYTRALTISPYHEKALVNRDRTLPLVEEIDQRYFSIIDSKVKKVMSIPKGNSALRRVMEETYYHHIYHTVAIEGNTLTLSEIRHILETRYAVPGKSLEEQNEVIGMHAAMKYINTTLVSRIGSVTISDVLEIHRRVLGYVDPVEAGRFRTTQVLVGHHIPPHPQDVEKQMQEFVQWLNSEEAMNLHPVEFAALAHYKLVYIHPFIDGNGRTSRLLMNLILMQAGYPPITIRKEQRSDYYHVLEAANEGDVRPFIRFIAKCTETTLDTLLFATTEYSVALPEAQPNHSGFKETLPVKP
Excerpt: (§1) We next sought to assess the effects of FPP, GPP, and isoprenoid analogues on FicD activity. To accurately judge the effects of small molecules on FicD AMPylation activity, we used the ATPase defective BiP^T229A mutant as substrate ([22], [49], [50]). Loss of ATP hydrolysis by the BiP mutant ensures: 1. conformational homogeneity of the BiP protein substrate; 2. lack of BiP competition for the ATP substrate; and 3. no production of ADP, a competitive inhibitor for ATP. In addition, we deleted the first 25 amino acids of BiP for ease with its purification and solubility. […]
For AMPylation assays with FicD and BiP, Δ104FicDWT and Δ26hBiPT229A were combined at a ratio
of 1:80 in buffer containing 25mM HEPES pH 7.4, 100mM KCl, 5mM MgCl2, 500μM ATP, 1mM
DTT, and small molecule where indicated. Assays with Δ104FicDWT were incubated for 1 hour.
the amount of FicD as in reactions containing FicDWT and were incubated at 37C for 4.5 hours. […]

VopS = target: T2, VopS (Vibrio parahaemolyticus serotype O3:K6, UniProt Q87P32); assay: In vitro AMPylation of GST-CDC42 by VopS
T2 construct: made in house
Excerpt: Finally, we explored the inhibitory effects of GPP/FPP on other Fido proteins to see if these metabolites could serve as generic inhibitors of Fido domains. To test this specificity, we performed in vitro activity assays with GPP/FPP and two constitutively active Fido proteins from bacteria: VopS from Vibrio parahaemolyticus ([25]) and AvrB from Pseudomonas syringae ([30]). […]
visualization. Min-max scaled RFU values and the first derivatives are plotted as a function of temperature in Graphpad Prism 10.6.1. In Prism, the first derivative values are uniformly nudged by -1 to facilitate presenting RFU values and their first derivatives on the same graph.
To generate dose-response curves, ΔTm, was first calculated by subtracting the Tm of the ’no ligand’ control from the Tm of relevant ligand-containing reactions. ΔTm was then plotted as a function of ligand concentration. Dose-response curves were fit using GraphPad Prism 10.6.1 with the [Agonist] vs. Response – Variable Slope (four parameters) model. […]
Dialyzed proteins were then spun down at 21,000G for 15 minutes at 4C to remove trace insoluble material. The protein concentration was measured spectrophotometrically and then diluted to working concentration with 25mM HEPES pH 7.4/100mM KCl/10% glycerol. […] Integrated data was globally analyzed in SEDPHAT 15.b (12) using a model considering a single class of binding sites. […]

FicD^WT [2] = target: T1, FicD^WT; assay: In vitro deAMPylation of Δ26hBiP^T229A-AMP by FicD^WT (Western blot); conditions: for inhibition of deAMPylation activity of FicD^WT: 100 μM metabolite, 5 mM MgCl2; for concentration at which inhibition of deAMPylation started: dose-response Western blot, FicD^WT
Excerpt: as §1
For deAMPylation assays with FicD and BiP, Δ26hBiPT229A was in-vitro AMPylated by […]
5mM MgCl2, 500uM ATP, 0.5% CHAPS, 1mM DTT. After one hour of incubation at 30-37C, the entire reaction mix was transferred into an Amicon 0.5mL 50kDa MWCO concentrator (cat no.
7.4/150mM NaCl/10% glycerol/1mM DTT was added to the concentrated AMPylation reaction and then spun down again at 14,000 x g at 4C for 5-10 minutes. This step was repeated four times to buffer exchange AMPylated Δ26hBiPT229A.
Δ104hFicDWT and Δ26hBiPT229A-AMP were combined at a ratio of 1:80 in buffer containing 25mM HEPES pH 7.4, 100mM KCl, 5mM MgCl2, 1mM DTT and the indicated small molecule where applicable. Reactions were incubated at 37C for 1 hour and stopped by the addition EDTA. 5X SDS sample buffer (250mM Tris pH 6.8, 10% Lithium dodecyl sulfate, 50% glycerol, 50mM DTT, 0.05% Bromophenol blue) was then added to the reactions and reactions were heated for 5 minutes at […]

[3] = substrate exceeds FPP by two to three orders of magnitude

T2 sequence (Q87P32 31-387): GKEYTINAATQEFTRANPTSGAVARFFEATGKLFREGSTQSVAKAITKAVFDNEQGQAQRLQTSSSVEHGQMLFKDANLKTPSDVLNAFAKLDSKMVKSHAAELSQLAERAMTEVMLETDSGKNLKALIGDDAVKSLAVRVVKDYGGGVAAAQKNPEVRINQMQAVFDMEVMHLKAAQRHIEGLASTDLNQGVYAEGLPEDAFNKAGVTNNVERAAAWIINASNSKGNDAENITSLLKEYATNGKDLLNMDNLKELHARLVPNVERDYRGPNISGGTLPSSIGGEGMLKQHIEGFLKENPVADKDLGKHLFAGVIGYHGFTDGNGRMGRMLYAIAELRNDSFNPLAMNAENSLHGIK

SMILES | inhibition of AMPylation of Δ26hBiP^T229A by FicD^WT (FicD^WT [1]) | concentration at which inhibition of AMPylation started (FicD^WT [1]) [µM] | effect on AMPylation activity of VopS (VopS) | inhibition of deAMPylation activity of FicD^WT (FicD^WT [2]) | concentration at which inhibition of deAMPylation started (FicD^WT [2]) [µM] | apparent EC50 of inhibition of AMPylation (FicD^WT [1]; [3]) | apparent EC50 of inhibition of deAMPylation (FicD^WT [2]; [3])
CC(C)=CCC/C(C)=C/COP(=O)(O)OP(=O)(O)O [GPP, geranyl-pyrophosphate] | inhibited | 20 | Neither GPP nor FPP affected | inhibited | 5 | – | –
CC(C)=CCC/C(C)=C/CC/C(C)=C/COP(=O)(O)OP(=O)(O)O [FPP, farnesyl-pyrophosphate] | inhibited | 5 | Neither GPP nor FPP affected; also recorded: not inhibited | inhibited | 1 | low micromolar range | low micromolar range
